# Test results from patent US9624200B2, “Therapeutic piperazines” (DART NEUROSCIENCE (CAYMAN) LTD., priority 2006, dated 2017).
# System: PDE4 from human U-937 cells
# Assay: PDE4 Inhibition Assay
# Type: biochemical
# Details: 1 μM cAMP, [3H]-cAMP, read-out: Potency Class (Inhibitory Concentration) in the PDE4 assay
# Protocol: PDE4 from human U-937 cells was used (see T. J. Torphy, et al., J. Pharmacol. Exp. Ther., 1992, 263, 1195-1205). Test compound at various concentration and/or vehicle was preincubated with 2 μg/ml enzyme in Tris-HCl buffer pH 7.5 for 15 minutes at 25° C. The reaction was initiated by addition of 1 1 μM cAMP and 0.01 1 μM [^3H]-cAMP for another 20 minute incubation period and terminated at 100° C. The resulting [^3H]-AMP was converted to [^3H]-adenosine by addition of snake venom nucleotidase and separated by AG1-X2 resin. An aliquot was removed and counted to determine the amount of [^3H]-adenosine formed. Results were converted to percent inhibition and IC so determined using XLfit from IDBS (ID Business Solutions Ltd., 2 Occam Court, Surrey Research Park, Guildford, Surrey, GU2 7QB UK).
# Representative compounds of the present invention were tested and found to have significant PDE4 inhibition in this assay.
row,Structure (SMILES),IC50
1,"COc1ccc(N2CCN(C(=O)Cc3n[nH]c([N+](=O)[O-])n3)[C@@H](Cc3ccccc3)C2)cc1OC1CCC1 [Compound 338, (S)-1-(2-benzyl-4-(3-cyclobutoxy-4-methoxyphenyl)piperazin-1-yl)-2-(5-nitro-1H-1,2,4-triazol-3-yl)ethanone]",200 to 1000 nM
2,"COc1ccc(N2CCN(C(=O)Cc3nn[nH]n3)[C@@H](Cc3ccccc3)C2)cc1OC1CCC1 [Compound 335, (S)-1-(2-benzyl-4-(3-cyclobutoxy-4-methoxyphenyl)piperazin-1-yl)-2-(2H-tetrazol-5-yl)ethanone]",< 200 nM
3,"CCc1nn(C2CCC2)c2cc(N3CCN(C(=O)Cc4ccccn4)[C@@H](Cc4ccccc4)C3)ccc12 [Compound 352, (S)-1-(2-benzyl-4-(1-cyclobutyl-3-ethyl-1H-indazol-6-yl)piperazin-1-yl)-2-(pyridin-2-yl)ethanone]",> 1000 nM
4,"COc1ccc(N2CCN(C(C)=O)[C@@H](CN3CCCC3)C2)cc1OC1CCCC1 [Compound 249, (S)-1-(4-(3-(cyclopentyloxy)-4-methoxyphenyl)-2-(pyrrolidin-1-ylmethyl)piperazin-1-yl)ethanone]",> 1000 nM
5,"COc1ccc(N2CCN(C(=O)Cc3n[nH]c([N+](=O)[O-])n3)[C@@H](Cc3ccccc3)C2)cc1OC(C)C [Compound 336, (S)-1-(2-benzyl-4-(3-isopropoxy-4-methoxyphenyl)piperazin-1-yl)-2-(5-nitro-1H-1,2,4-triazol-3-yl)ethanone]",> 1000 nM
6,"COc1ccc(N2CCN(C(=O)Cn3ccnn3)[C@@H](Cc3ccccc3)C2)cc1OC1CCCC1 [Compound 334, (S)-1-(2-benzyl-4-(3-(cyclopentyloxy)-4-methoxyphenyl)piperazin-1-yl)-2-(1H-1,2,3-triazol-1-yl)ethanone]",> 1000 nM
7,"Cc1nc(CC(=O)N2CCN(c3ccc(OC(F)F)c(OC4CCC4)c3)C[C@@H]2Cc2ccccc2)n[nH]1 [Compound 345, (S)-1-(2-benzyl-4-(3-cyclobutoxy-4-(difluoromethoxy)phenyl)piperazin-1-yl)-2-(5-methyl-1H-1,2,4-triazol-3-yl)ethanone]",< 200 nM
8,"COc1ccc(N2CCN(C(=O)CN3CC[C@@H](O)C3)[C@@H](Cc3ccccc3)C2)cc1OC1CCCC1 [Compound 320, 1-((S)-2-benzyl-4-(3-(cyclopentyloxy)-4-methoxyphenyl)piperazin-1-yl)-2-((R)-3-hydroxypyrrolidin-1-yl)ethanone]",> 1000 nM
9,"COc1ccc(N2CCN(Cc3ccc(O)cc3)[C@@H](Cc3ccccc3)C2)cc1OC1CCCC1 [Compound 362, (S)-4-((2-benzyl-4-(3-(cyclopentyloxy)-4-methoxyphenyl)piperazin-1-yl)methyl)phenol]",> 1000 nM
10,"COc1ccc(N2CCN(C(=O)Cc3c[nH]cn3)[C@@H](CC(C)C)C2)cc1OC1CCC1 [Compound 367, (S)-1-(4-(3-cyclobutoxy-4-methoxyphenyl)-2-isobutylpiperazin-1-yl)-2-(1H-imidazol-4-yl)ethanone]",< 200 nM
11,"COc1ccc(N2CCN(C(=O)CCc3cnc[nH]3)[C@@H](Cc3ccccc3)C2)cc1OC1CCCC1 [Compound 239, (S)-1-(2-benzyl-4-(3-(cyclopentyloxy)-4-methoxyphenyl)piperazin-1-yl)-3-(1H-imidazol-5-yl)propan-1-one]",> 1000 nM
12,"COc1ccc(N2CCN(C(=O)Cn3ccnc3)[C@@H](Cc3ccccc3)C2)cc1OC1CCCC1 [Compound 290, (S)-1-(2-benzyl-4-(3-(cyclopentyloxy)-4-methoxyphenyl)piperazin-1-yl)-2-(1H-imidazol-1-yl)ethanone]",> 1000 nM
13,"COc1ccc(N2CCN(C(=O)CC(N)=O)[C@@H](Cc3ccccc3)C2)cc1OC1CCC1 [Compound 261, (S)-3-(2-benzyl-4-(3-cyclobutoxy-4-methoxyphenyl)piperazin-1-yl)-3-oxopropanamide]",< 200 nM
14,"COc1ccc(N2CCN(C(=O)c3ccc(O)c(O)c3)[C@@H](Cc3ccccc3)C2)cc1OC1CCCC1 [Compound 286, (S)-(2-benzyl-4-(3-(cyclopentyloxy)-4-methoxyphenyl)piperazin-1-yl)(3,4-dihydroxyphenyl)methanone]",> 1000 nM
15,"COc1ccc(N2CCN(C(=O)Cc3n[nH]c(C)n3)[C@@H](CN3CCCC3)C2)cc1OC1CCCC1 [Compound 255, (S)-1-(4-(3-(cyclopentyloxy)-4-methoxyphenyl)-2-(pyrrolidin-1-ylmethyl)piperazin-1-yl)-2-(5-methyl-1H-1,2,4-triazol-3-yl)ethanone]",> 1000 nM
16,CCOc1ccc(N2CCN(C(C)=O)[C@@H](Cn3cccn3)C2)cc1OC1CCCC1 [Compound 254],> 1000 nM
17,"COc1ccc(N2CCN(C(=O)Cn3ccnc3C)[C@@H](Cc3ccccc3)C2)cc1OC1CCCC1 [Compound 289, (S)-1-(2-benzyl-4-(3-(cyclopentyloxy)-4-methoxyphenyl)piperazin-1-yl)-2-(2-methyl-1H-imidazol-1-yl)ethanone]",> 1000 nM
18,"COc1ccc(N2CCN(C(=O)CN)[C@@H](Cc3ccccc3)C2)cc1OC1CCC1 [Compound 349, (S)-2-amino-1-(2-benzyl-4-(3-cyclobutoxy-4-methoxyphenyl)piperazin-1-yl)ethanone]",> 1000 nM

# Further lines, results first:
row,IC50,Structure (SMILES)
1,> 1000 nM,"COc1ccc(N2CCN(C(=O)[C@H]3CCC(=O)O3)[C@@H](Cc3ccccc3)C2)cc1OC1CCCC1 [Compound 296, (R)-5-((S)-2-benzyl-4-(3-(cyclopentyloxy)-4-methoxyphenyl)piperazine-1-carbonyl)dihydrofuran-2(3H)-one]"
2,< 200 nM,"Cc1nc(CC(=O)N2CCN(c3ccc(OC(F)F)c(OC4CCCC4)c3)C[C@@H]2CC(C)C)n[nH]1 [Compound 374, (S)-1-(4-(3-(cyclopentyloxy)-4-(difluoromethoxy)phenyl)-2-isobutylpiperazin-1-yl)-2-(5-methyl-1H-1,2,4-triazol-3-yl)ethanone]"
3,< 200 nM,"CCc1nn(C(C)C)c2cc(N3CCN(C(=O)Cc4nc(C)n[nH]4)[C@@H](Cc4ccccc4)C3)ccc12 [Compound 381, (S)-1-(2-benzyl-4-(3-ethyl-1-isopropyl-1H-indazol-6-yl)piperazin-1-yl)-2-(3-methyl-1H-1,2,4-triazol-5-yl)ethanone]"
4,200 to 1000 nM,"COc1ccc(N2CCN(CCC(N)=O)[C@@H](Cc3ccccc3)C2)cc1OC(C)C [Compound 272, (S)-3-(2-benzyl-4-(3-isopropoxy-4-methoxyphenyl)piperazin-1-yl)propanamide]"
5,< 200 nM,"CCc1nn(C2CCC2)c2cc(N3CCN(C(=O)Cc4n[nH]c(N)n4)[C@@H](Cc4ccccc4)C3)ccc12 [Compound 355, (S)-2-(5-amino-1H-1,2,4-triazol-3-yl)-1-(2-benzyl-4-(1-cyclobutyl-3-ethyl-1H-indazol-6-yl)piperazin-1-yl)ethanone]"
6,200 to 1000 nM,"COc1ccc(N2CCN(C(=O)Cc3n[nH]c(C)n3)[C@@H](CC(C)C)C2)cc1OC(C)C [Compound 377, (S)-1-(2-isobutyl-4-(3-isopropoxy-4-methoxyphenyl)piperazin-1-yl)-2-(5-methyl-1H-1,2,4-triazol-3-yl)ethanone]"
7,200 to 1000 nM,"COc1ccc(N2CCN(C(=O)c3c[nH]cn3)[C@@H](Cc3ccccc3)C2)cc1OC1CCCC1 [Compound 241, (S)-(2-benzyl-4-(3-(cyclopentyloxy)-4-methoxyphenyl)piperazin-1-yl)(1H-imidazol-4-yl)methanone]"
8,< 200 nM,"CCc1nn(C2CCCC2)c2cc(N3CCN(C(=O)Cc4nc(C)n[nH]4)[C@@H](Cc4ccccc4)C3)ccc12 [Compound 380, (S)-1-(2-benzyl-4-(1-cyclopentyl-3-ethyl-1H-indazol-6-yl)piperazin-1-yl)-2-(3-methyl-1H-1,2,4-triazol-5-yl)ethanone]"
9,200 to 1000 nM,"COc1ccc(N2CCN(C(=O)C(=O)c3ccco3)[C@@H](Cc3ccccc3)C2)cc1OC1CCCC1 [Compound 302, (S)-1-(2-benzyl-4-(3-(cyclopentyloxy)-4-methoxyphenyl)piperazin-1-yl)-2-(furan-2-yl)ethane-1,2-dione]"
10,< 200 nM,"COc1ccc(N2CCN(C(=O)Cc3cnc[nH]3)[C@@H](Cc3ccccc3)C2)cc1OC1CCCC1 [Compound 240, (S)-1-(2-benzyl-4-(3-(cyclopentyloxy)-4-methoxyphenyl)piperazin-1-yl)-2-(1H-imidazol-5-yl)ethanone]"
11,< 200 nM,"COc1ccc(N2CCN(C(=O)Cc3cc(C)[nH]n3)[C@@H](Cc3ccccc3)C2)cc1OC1CCCC1 [Compound 305, (S)-1-(2-benzyl-4-(3-(cyclopentyloxy)-4-methoxyphenyl)piperazin-1-yl)-2-(5-methyl-1H-pyrazol-3-yl)ethanone]"
12,< 200 nM,CCOc1ccc(N2CCN(C(=O)Cc3n[nH]c(C)n3)[C@@H](Cn3cccn3)C2)cc1OC1CCCC1 [Compound 257]
13,200 to 1000 nM,COc1ccc(N2CCN(CC(=O)O)[C@@H](Cc3ccccc3)C2)cc1OC(C)C [Compound 266]
14,200 to 1000 nM,"COc1ccc(N2CCN(C(=O)Cc3cnccn3)[C@@H](Cc3ccccc3)C2)cc1OC1CCCC1 [Compound 387, (S)-1-(2-benzyl-4-(3-(cyclopentyloxy)-4-methoxyphenyl)piperazin-1-yl)-2-(pyrazin-2-yl)ethanone]"
15,< 200 nM,"COc1ccc(N2CCN(C(=O)Cc3nn[nH]n3)[C@@H](Cc3ccccc3)C2)cc1OC1CCCC1 [Compound 294, (S)-1-(2-benzyl-4-(3-(cyclopentyloxy)-4-methoxyphenyl)piperazin-1-yl)-2-(2H-tetrazol-5-yl)ethanone]"
16,< 200 nM,"COc1ccc(N2CCN(C(=O)Cc3cnc[nH]3)[C@@H](Cc3ccccc3)C2)cc1OC(C)C [Compound 327, (S)-1-(2-benzyl-4-(3-isopropoxy-4-methoxyphenyl)piperazin-1-yl)-2-(1H-imidazol-5-yl)ethanone]"
